Source: patent US11111222B2, “Hydroxyeicosatrienoic acid compounds and their use as therapeutic agents” (THE REGENTS OF THE UNIVERSITY OF MICHIGAN, priority 2016, dated 2021)
Entries after “also recorded” stand apart in the source; their conditions may differ.

Tests used:
[1] = tested on: platelets of mice expressing the human FcγRIIa receptor; test: Animal model of ITP (anti-GPIX in mice expressing human FcγRIIa); assay type: in vivo, mouse; details: 6 mg/kg i.v. 10 min before GPIX antibody
Protocol: Mice expressing the human immune-receptor FcγRIIa were injected IV with GPIX, an antibody known to induce acute ITP (Stolla et al., Blood 118(4): 1113-1120, 2011) as previously described (Yeung et al., Blood 124(4): 2271-2279, 2014). […] To determine if 12(S)-HETrE compounds would be viable therapeutics to prevent ITP in this model, 6 mg/kg 12(S)-HETrE was injected IV 10 minutes prior to GPIX antibody injection, and platelet count was measured at several time points prior to and following antibody injection. Additionally, immunofluorescent-labelled platelets that had been injected prior to the onset of ITP were measured in excised lungs 4 hours following GPIX administration.

[2] = tested on: washed platelets from WT or 12-LOX−/− mice; test: Platelet aggregation, washed murine platelets (lumi-aggregometer); assay type: cell-based, mouse; details: 25 μM 12-LOX oxylipin, 10 min, vs vehicle
Protocol: The 12-LOX null C57BL/6 (12-LOX^−/−) mice were generated using homozygous breeding pairs and wild-type (WT) C57BL/6 ([…]) mice were purchased (Jackson Laboratory). […] Mouse blood was diluted with equal volumes of Tyrode's buffer (10 mM HEPES, 11.9 mM sodium bicarbonate, 127.2 mM sodium chloride, 5 mM potassium chloride, 0.4 mM sodium phosphate monobasic, 1 mM magnesium chloride, and 5 mM D-glucose) and centrifuged at 200×g. Platelet-rich-plasma (PRP) was transferred to a tube containing 10× acid citrate dextrose solution (ACD) (2.5% sodium citrate, 1.5% citric acid, and 2% D-glucose) and apyrase (0.02 U/mL), and centrifuged at 2000×g. Platelet count was adjusted to 3×10^8 platelets/mL with Tyrode's buffer for all studies.
A lumi-aggregometer (Chrono-log model 700D) was used to measure platelet aggregation under stirring conditions (1100 rpm) at 37° C. Prior to agonist stimulation platelets were incubated with a preselected PUFA or oxylipin for 10 minutes.

[3] = Cremaster muscle arterial puncture model of hemostasis; assay type: in vivo, mouse; details: laser puncture of cremaster arteriole; vs control treated mice
Protocol: Mice were anesthetized, tail vein injected with anti-platelet and anti-fibrin antibodies and their cremaster muscle arterioles were prepared as described above. A high intensity laser pulse from the laser ablation system was used to puncture a hole in the cremaster muscle arteriole wall as visualized by red blood cell (RBC) leakage from the vessel. Images of RBCs leakage and hemostatic plug formation were acquired in real-time with a fluorescent microscope as described above. Arterial bleeding time was defined as the time from laser pulse injury until cessation of RBC leakage from the vessel.

[4] = tested on: Rap1; test: Rap1 activation in washed platelets (Rap1-GTP pull-down, Western blot); assay type: cell-based, mouse; details: 25 μM 12-HETrE, PAR4-AP stimulated, vs vehicle
Protocol: Following 1 minute of stimulation platelets were lysed with 2× platelet lysis buffer (100 mM Tris HCl, pH 7.4, 150 mM NaCl, 2% IGEPAL, 1% sodium deoxycholate, and 0.05% SDS) containing protease and phosphatase inhibitors. The cytoskeleton was pelleted by centrifugation at 14000×g for 7 minutes at 4° C. Active Rap1 was selectively captured from the supernatant by incubating GST-tagged Rap1 binding domain of RalGDS conjugated to glutathione sepharose beads for one hour on a nutator at 4° C. The beads were then washed 5 times with IP buffer and resuspended in 2× Laemmeli reducing buffer (62.5 mM Tris-HCl, pH 6.8, 2% SDS, 25% glycerol, 0.01% bromophenol blue, 5% β-mercaptoethanol). The samples were boiled for 10 minutes and then loaded onto a 10% SDS-polyacrylamide gel electrophoresis (PAGE) gel. Western blots were performed using a Rap1 antibody and quantified with a LI-COR imager.

[5] = tested on: adenylyl cyclase; test: LC/MS quantification of cAMP in washed human platelets; assay type: cell-based; details: 25 μM, 1 min; platelets pre-treated with 10 μM IBMX; vs DMSO
Protocol: Washed human platelets were treated with the specific ligand or vehicle control for 1 min at room temperature, and quenched with an equal volume of ice-cold 2× platelet lysis buffer containing protease and phosphatase inhibitors. Lysed platelet samples were centrifuged at 14,000 g for 7 min at 4° C. to pellet cytoskeleton and the supernatant was stored in −80° C.
To prepare the sample for LC/MS injection, 200 μL of the supernatant was spiked with 400 pg of adenosine-3′,5′-cyclic-13C5 monophosphate (^13C5-cAMP) (Toronto Research Chemicals, Inc.), an internal standard, and 600 μL of LC/MS grade acetonitrile (Fisher Scientific). The sample was briefly vortexed and centrifuged at 14,000 rpm for 10 min at 4° C. The supernatants were then air dried in a SpeedVac and reconstituted in 200 μL of LC/MS grade water and centrifuged at 10,000 rpm for 5 min at 4° C. and used for LC/MS injection.
The separation and detection of cAMP was performed on a Waters ACQUITY UPLC system equipped with a Xevo Triple Quadrupole Mass Spectrometer (TQ-S MS/MS). […]
The mass spectrometer was operated with an ESI source in positive mode. […] Cyclic AMP (cAMP) was quantitated using ^13C5-cAMP as the internal standard. […]

[6] = tested on: VASP (serine 157); test: VASP phosphorylation in human platelets; assay type: cell-based; details: 25 μM, 1 min; vs DMSO
Protocol: Washed platelets were treated with PUFA or PUFA metabolite (12(S)-HETrE or compound IIc) for one minute, then directly lysed in 5× Laemmeli sample buffer (1.5 M Tris-HCl, pH 6.8, glycerol, 5% β-mercaptoethanol, 10% sodium dodecyl sulfate (SDS), and 1% bromophenol blue). The samples were boiled for five minutes and then run on a 10% SDS-PAGE gel. The levels of total and phospho-VASP (serine 157) were quantified by Western Blot using an Odyssey imaging system (LI-CoR).

Compound: CCCCC/C=C\C[C@H](O)/C=C/C=C\CCCCCCC(=O)O [12(S)-HETrE, 12(S)-hydroxy-8Z,10E,14Z-eicosatrienoic acid]
- reduction of thrombi in the lungs ([1]; excised lungs): more than 40%
- accumulation of fluorescently labeled platelets in the lungs ([1]; lungs excised 4 hours after GPIX, vs vehicle): prevented accumulation of fluorescently labeled platelets in the lungs
- platelet count (thrombocytopenia) ([1]; vs vehicle): no signs of thrombocytopenia; also recorded: prevented thrombocytopenia
- platelet aggregation ([2]; 12-LOX−/− mouse platelets, EC80 PAR4-AP (200 μM) or collagen (2 or 5 μg/mL)): inhibited the aggregation
- platelet aggregation ([2]; WT mouse platelets, EC80 PAR4-AP (100 μM) or collagen (5 μg/mL)): inhibited the aggregation
- duration of RBC leakage (arterial bleeding time) [3]: No significant difference in the duration of RBC leakage
- Rap1 activation (Rap1-GTP) ([4]; 12-LOX−/− mouse platelets): suppressed Rap1 activation
- Rap1 activation (Rap1-GTP) ([4]; WT mouse platelets): suppressed Rap1 activation
- level of intracellular cAMP [5]: significant increase in the level of intracellular cAMP
- VASP phosphorylation (S157) [6]: enhanced VASP phosphorylation
